Source: US20260207585A1, “METHODS AND COMPOSITIONS FOR THE TREATMENT OF PARKINSON'S DISEASE, HUNTINGTON'S DISEASE, AMYOTROPHIC LATERAL SCLEROSIS, AND LEARNING DISORDERS” (Cedars-Sinai Medical Center, priority 2022, published 2026)
Like-named read-outs stand apart in the source and are kept apart here.

Assays:
[1] = tested on: wildtype and AD model (APP/PS1-transgenic) mice; experiment: Y-Maze test; assay type: in vivo
Method: (§1) The effects of single and repeated ETP69 injections in mice were tested. The experimental timeline is depicted in FIG. 5. Three parallel injection conditions were tested: a single ETP69 condition, a boosted ETP69 injection, and repeated ETP69 injections. The single injection mice received one injection of ETP69 or DMSO at Day 0. The mice that received a boosted injection received one injection of ETP69 or DMSO at day 0 and one injection at day 9. The mice that received repeated injections received 11 injections of ETP69 or DMSO at day 0 or day 9. Both wildtype and AD model (APP/PS1-transgenic) mice were tested.
Treatment with ETP69 restored CNS-related locomotor, visual, cognitive functions (FIGS. 6A-611). First, the effects of ETP69 on cognitive and visual protection was tested using the Y-Maze test.

PRMT7 = target: T1, PRMT7 (Homo sapiens, UniProt Q9NVM4); experiment: Methyltransferase inhibition panel: PRMT7; assay type: biochemical
T1 sequence (Q9NVM4 1-692): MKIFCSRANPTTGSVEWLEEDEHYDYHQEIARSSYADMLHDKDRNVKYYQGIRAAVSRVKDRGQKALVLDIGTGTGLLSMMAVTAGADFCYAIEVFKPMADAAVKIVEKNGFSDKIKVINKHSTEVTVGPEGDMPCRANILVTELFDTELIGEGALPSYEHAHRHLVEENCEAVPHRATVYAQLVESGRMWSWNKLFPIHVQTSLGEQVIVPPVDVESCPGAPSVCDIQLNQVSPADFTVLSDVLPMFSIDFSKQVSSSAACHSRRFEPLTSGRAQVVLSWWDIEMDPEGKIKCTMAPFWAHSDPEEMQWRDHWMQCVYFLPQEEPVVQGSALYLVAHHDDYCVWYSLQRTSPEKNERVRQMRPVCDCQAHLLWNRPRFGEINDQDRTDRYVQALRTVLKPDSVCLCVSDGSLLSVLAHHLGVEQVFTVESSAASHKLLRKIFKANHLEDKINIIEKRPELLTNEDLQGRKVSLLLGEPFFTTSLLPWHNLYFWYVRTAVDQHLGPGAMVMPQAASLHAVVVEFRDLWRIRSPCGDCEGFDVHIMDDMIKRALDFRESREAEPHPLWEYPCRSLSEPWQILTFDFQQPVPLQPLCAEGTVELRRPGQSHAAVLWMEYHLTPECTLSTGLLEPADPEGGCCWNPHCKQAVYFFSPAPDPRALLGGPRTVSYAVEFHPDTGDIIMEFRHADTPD
Method: (§2) The ability of ETP69 to inhibit methyltransferases was tested.

[2] = tested on: ionized calcium-binding adaptor molecule 1 (Iba-1); experiment: Iba-1 immunoreactivity (microgliosis) in cerebral cortex; assay type: in vivo; settings: neurodegenerative mice
Method: The effects of ETP69 on cerebral H3K9me3 levels was tested in old mice, in both a neurodegenerative model and WT siblings. The levels of brain H3K9me3 at days 4 (short-term) and 15 (long-term) following i.p. ETP69 injection (S regimen cohorts) were measured. […] These findings indicate that a single dose of ETP69 is sufficient to sustainably reduce H3K9me3 in the brains of old WT and neurodegenerative mice. Consistent with the observations in 18-month-old mice, ETP69 mitigated neuroinflammation, including by reduced ionized calcium-binding adaptor molecule 1 (Iba-1)^+ microgliosis in neurodegenerative mice (40%, p=0.0021; FIG. 16D).

SET8 = target: T2, SET8 (Homo sapiens, UniProt Q9NQR1); experiment: Methyltransferase inhibition panel: SET8; assay type: biochemical
T2 sequence (Q9NQR1 1-393): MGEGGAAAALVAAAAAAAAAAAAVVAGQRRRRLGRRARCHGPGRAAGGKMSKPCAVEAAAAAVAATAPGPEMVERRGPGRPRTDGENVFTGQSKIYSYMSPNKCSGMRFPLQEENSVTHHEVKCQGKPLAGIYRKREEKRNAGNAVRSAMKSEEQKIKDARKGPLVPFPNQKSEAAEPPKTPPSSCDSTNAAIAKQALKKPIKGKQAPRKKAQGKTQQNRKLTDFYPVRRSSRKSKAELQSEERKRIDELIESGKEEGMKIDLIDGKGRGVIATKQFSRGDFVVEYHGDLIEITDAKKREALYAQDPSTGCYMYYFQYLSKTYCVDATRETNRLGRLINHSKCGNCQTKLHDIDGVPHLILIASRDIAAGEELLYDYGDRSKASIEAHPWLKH
Method: as §2

NSD1 = NSD1 (Homo sapiens, UniProt Q96L73); experiment: Methyltransferase inhibition panel: NSD1; assay type: biochemical
NSD1, sequence (Q96L73 whole entry): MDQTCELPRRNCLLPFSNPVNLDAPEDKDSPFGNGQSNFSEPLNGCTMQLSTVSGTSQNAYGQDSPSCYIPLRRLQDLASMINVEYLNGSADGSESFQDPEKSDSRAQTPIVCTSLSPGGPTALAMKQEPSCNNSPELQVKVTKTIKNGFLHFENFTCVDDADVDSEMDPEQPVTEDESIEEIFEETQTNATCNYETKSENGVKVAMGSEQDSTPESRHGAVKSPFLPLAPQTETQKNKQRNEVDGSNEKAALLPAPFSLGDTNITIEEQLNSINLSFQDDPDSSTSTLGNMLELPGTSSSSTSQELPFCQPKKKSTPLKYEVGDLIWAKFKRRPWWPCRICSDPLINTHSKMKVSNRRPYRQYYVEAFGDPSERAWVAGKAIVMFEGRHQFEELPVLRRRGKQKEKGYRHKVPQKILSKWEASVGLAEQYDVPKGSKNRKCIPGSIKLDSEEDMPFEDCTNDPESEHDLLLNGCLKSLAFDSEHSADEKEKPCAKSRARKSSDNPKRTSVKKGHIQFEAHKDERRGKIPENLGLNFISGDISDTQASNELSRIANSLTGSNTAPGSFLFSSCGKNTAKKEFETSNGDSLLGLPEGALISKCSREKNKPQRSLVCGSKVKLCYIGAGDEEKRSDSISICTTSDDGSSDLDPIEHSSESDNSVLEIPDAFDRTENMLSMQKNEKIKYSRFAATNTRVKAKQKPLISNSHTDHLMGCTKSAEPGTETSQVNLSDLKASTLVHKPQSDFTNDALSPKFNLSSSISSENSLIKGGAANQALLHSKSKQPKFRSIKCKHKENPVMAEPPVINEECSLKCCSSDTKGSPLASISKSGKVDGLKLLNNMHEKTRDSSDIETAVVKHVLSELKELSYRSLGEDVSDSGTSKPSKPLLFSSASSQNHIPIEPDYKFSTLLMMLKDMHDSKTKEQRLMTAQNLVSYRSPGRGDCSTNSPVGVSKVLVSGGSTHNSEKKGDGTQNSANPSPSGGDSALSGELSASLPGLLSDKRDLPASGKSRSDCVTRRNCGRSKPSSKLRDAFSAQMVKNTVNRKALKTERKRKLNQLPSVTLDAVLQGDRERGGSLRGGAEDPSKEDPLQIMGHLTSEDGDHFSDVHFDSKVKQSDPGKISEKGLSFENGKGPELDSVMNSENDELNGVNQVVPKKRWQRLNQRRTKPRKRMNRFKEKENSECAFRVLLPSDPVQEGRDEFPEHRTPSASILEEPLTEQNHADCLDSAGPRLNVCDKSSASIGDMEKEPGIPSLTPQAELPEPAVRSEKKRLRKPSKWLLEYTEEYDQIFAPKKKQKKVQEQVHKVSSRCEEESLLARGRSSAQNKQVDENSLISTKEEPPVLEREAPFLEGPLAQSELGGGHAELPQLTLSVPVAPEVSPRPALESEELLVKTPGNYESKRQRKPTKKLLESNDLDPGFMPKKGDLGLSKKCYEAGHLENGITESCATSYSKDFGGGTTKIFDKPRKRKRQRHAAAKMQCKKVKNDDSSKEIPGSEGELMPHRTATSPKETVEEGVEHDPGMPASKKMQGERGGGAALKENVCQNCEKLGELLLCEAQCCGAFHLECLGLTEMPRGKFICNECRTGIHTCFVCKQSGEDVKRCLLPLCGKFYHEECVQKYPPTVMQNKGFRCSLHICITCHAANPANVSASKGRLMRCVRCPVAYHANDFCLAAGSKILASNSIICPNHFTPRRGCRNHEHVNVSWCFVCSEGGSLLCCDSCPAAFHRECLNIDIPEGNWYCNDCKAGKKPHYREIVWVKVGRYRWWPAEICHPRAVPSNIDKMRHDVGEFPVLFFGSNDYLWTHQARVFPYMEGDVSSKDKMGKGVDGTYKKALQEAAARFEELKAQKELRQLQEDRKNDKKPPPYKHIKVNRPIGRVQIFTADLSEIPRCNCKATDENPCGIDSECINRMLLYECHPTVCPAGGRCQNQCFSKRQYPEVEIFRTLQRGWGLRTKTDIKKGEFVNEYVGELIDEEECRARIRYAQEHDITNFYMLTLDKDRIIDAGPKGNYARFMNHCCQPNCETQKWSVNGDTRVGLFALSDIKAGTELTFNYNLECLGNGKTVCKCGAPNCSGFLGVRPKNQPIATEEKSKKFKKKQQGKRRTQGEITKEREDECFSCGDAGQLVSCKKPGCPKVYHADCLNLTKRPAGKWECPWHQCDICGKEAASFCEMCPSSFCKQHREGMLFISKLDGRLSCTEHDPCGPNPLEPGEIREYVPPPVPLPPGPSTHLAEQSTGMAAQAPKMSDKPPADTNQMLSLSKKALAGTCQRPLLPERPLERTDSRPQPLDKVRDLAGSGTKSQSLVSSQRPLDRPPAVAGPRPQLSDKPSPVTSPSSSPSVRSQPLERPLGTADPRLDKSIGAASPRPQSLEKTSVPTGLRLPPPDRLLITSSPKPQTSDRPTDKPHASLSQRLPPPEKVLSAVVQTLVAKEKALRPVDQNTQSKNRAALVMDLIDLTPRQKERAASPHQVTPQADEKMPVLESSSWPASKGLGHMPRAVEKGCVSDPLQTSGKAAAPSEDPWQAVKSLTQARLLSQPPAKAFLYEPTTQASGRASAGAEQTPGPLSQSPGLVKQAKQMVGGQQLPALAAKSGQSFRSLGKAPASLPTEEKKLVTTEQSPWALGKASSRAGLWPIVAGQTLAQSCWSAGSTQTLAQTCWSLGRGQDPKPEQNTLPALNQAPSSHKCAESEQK
Method: as §2

PRMT4 = PRMT4 (Homo sapiens, UniProt Q86X55); experiment: Methyltransferase inhibition panel: PRMT4; assay type: biochemical
PRMT4, sequence (Q86X55 whole entry): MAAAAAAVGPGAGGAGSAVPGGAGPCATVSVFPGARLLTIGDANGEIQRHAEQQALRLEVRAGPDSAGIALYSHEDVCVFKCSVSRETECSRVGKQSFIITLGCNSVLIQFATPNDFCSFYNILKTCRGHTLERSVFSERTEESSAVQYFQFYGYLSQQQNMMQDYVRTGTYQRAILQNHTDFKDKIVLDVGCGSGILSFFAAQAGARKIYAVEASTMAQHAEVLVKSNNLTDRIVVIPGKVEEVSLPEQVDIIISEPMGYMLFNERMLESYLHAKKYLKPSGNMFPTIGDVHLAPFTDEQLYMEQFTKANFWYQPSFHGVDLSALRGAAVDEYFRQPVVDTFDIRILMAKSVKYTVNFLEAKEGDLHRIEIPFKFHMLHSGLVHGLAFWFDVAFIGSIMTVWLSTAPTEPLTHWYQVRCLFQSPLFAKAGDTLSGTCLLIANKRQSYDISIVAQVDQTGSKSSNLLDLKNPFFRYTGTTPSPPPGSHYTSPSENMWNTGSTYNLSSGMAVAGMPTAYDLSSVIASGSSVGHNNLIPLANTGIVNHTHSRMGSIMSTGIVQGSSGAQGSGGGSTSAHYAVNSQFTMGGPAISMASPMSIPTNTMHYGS
Method: as §2

EZH2 Complex = EZH2 Complex (Homo sapiens, UniProt Q15910); experiment: Methyltransferase inhibition panel: EZH2 Complex; assay type: biochemical; settings: NT1721 20 μM; substrate Core Histone 0.05 mg/mL
Method: as §2

EZH2(Y641F) Complex = EZH2(Y641F) Complex (Homo sapiens, UniProt Q15910, Y641F); experiment: Methyltransferase inhibition panel: EZH2(Y641F) Complex; assay type: biochemical; settings: NT1721 20 μM; substrate Core Histone 0.05 mg/mL
Method: as §2

DNMT3b = DNMT3b (Homo sapiens, UniProt Q9UBC3); experiment: Methyltransferase inhibition panel: DNMT3b; assay type: biochemical
Method: as §2

PRDM9 = PRDM9 (Homo sapiens, UniProt Q9NQV7); experiment: Methyltransferase inhibition panel: PRDM9; assay type: biochemical
PRDM9, sequence (Q9NQV7 whole entry): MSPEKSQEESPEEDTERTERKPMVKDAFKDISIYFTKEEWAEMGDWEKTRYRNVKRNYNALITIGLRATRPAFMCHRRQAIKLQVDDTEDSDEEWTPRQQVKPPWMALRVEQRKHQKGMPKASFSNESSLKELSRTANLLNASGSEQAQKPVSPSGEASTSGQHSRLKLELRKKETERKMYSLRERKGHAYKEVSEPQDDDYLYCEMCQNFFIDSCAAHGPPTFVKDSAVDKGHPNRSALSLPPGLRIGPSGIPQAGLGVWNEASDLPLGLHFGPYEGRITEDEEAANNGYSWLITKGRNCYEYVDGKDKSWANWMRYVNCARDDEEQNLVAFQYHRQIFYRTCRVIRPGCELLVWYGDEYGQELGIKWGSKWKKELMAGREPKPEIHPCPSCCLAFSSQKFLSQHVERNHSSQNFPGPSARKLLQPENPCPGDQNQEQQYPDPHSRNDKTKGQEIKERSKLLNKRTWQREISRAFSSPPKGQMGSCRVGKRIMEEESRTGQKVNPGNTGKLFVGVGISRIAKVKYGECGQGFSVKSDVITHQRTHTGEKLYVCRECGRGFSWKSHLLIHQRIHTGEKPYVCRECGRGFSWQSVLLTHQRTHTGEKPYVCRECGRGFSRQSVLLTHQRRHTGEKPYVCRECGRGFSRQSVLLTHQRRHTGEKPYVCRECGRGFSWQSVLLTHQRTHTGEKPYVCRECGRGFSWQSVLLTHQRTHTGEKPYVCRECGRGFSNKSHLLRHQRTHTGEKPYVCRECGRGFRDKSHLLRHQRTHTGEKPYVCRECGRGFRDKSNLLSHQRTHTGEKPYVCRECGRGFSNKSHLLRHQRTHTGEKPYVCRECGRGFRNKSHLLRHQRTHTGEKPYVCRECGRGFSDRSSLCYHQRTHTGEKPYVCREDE
Method: as §2

DNMT1 = DNMT1 (Homo sapiens, UniProt P26358); experiment: Methyltransferase inhibition panel: DNMT1; assay type: biochemical
Method: as §2

AD+ mice = experiment: Open Field Barnes Maze test; assay type: in vivo; settings: AD+ mice vs AD+ mice treated with DMSO
Method: as §1
The results of the Open Field Barnes Maze test indicate hippocampal-based spatial memory. FIG. 7A depicts a schematic of the Barnes Maze Test. […] The results of the fear conditioning test indicate spatial memory.

PRMT6 = PRMT6 (Homo sapiens, UniProt Q96LA8); experiment: Methyltransferase inhibition panel: PRMT6; assay type: biochemical; settings: NT1721 20 μM, substrate GST-GAR 5 μM
PRMT6, sequence (Q96LA8 whole entry): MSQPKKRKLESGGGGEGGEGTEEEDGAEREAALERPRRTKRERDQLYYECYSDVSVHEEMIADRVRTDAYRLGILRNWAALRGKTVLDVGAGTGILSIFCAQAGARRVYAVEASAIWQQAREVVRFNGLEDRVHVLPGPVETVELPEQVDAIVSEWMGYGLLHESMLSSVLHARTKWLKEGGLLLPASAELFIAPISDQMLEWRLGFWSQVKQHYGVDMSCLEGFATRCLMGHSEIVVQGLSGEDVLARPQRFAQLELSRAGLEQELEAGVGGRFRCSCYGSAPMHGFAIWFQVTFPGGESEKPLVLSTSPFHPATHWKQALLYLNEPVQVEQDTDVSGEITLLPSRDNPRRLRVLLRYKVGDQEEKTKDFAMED
Method: as §2

[3] = NT1721 20 μM, substrate GST-GAR 5 μM
[4] = read-out: Enzyme % Activity (relative to DMSO controls) Data 1
[5] = read-out: Enzyme % Activity (relative to DMSO controls) Data 2
[6] = NT1721 20 μM, substrate Nucleosomes 0.05 mg/mL

What does the source list for CN1C(=O)[C@@]23C[C@](C)(C#N)[C@H](c4ccc5c(c4)OCO5)N2C(=O)[C@]1(C)SS3 (racemic) [ETP69, Rac-(3S,6S,7S,8aS)-6-(benzo[d][1,3]dioxol-5-yl)-2,3,7-trimethyl-1,4-dioxohexahydro-6H-3,8a-epidithiopyrrolo[1,2-a]pyrazine-7-carbonitrile]?
percent alternation ([1]; AD+ mice vs AD+ DMSO): significant increase; number of total entries (locomotor activity) ([1]; wildtype and AD+ mice): decreased; Enzyme % Activity (relative to DMSO controls) Data 1 (PRMT7; [3]): 66.70%; Enzyme % Activity (relative to DMSO controls) Data 2 (PRMT7; [3]): 66.73%; inhibition relative to DMSO controls (PRMT7; summary of Table 1): at least 7500; reduction of Iba-1+ microgliosis [2]: 40%; remaining activity at 20 µM (SET8; [4]): 92.3%; remaining activity at 20 µM (SET8; [5]): 92.6%; Enzyme % Activity (relative to DMSO controls) Data 1 (NSD1; [6]): 34.29%; Enzyme % Activity (relative to DMSO controls) Data 2 (NSD1; [6]): 36.14%; inhibition relative to DMSO controls (NSD1; summary of Table 1): at least 7500; remaining activity at 20 µM (PRMT4; [4]): 115%; remaining activity at 20 µM (PRMT4; [5]): 114%; Enzyme % Activity (relative to DMSO controls) Data 1 (EZH2 Complex): 98.37%; Enzyme % Activity (relative to DMSO controls) Data 2 (EZH2 Complex): 97.85%; Enzyme % Activity (relative to DMSO controls) Data 1 (EZH2(Y641F) Complex): 102.54%; Enzyme % Activity (relative to DMSO controls) Data 2 (EZH2(Y641F) Complex): 102.95%; remaining activity at 20 µM (DNMT3b; [4]): 84.8%; remaining activity at 20 µM (DNMT3b; [5]): 80.9%; remaining activity at 20 µM (PRDM9; [4]): 46.2%; remaining activity at 20 µM (PRDM9; [5]): 47.1%; inhibition relative to DMSO controls (PRDM9; summary of Table 1): at least 7500; remaining activity at 20 µM (DNMT1; [4]): 105%; remaining activity at 20 µM (DNMT1; [5]): 108%; memory retention (AD+ mice): improvement; remaining activity at 20 µM (PRMT6; [4]): 128%; remaining activity at 20 µM (PRMT6; [5]): 129%
